For assay [1], the system named is Lassa GP-pseudotyped-virus. Nature of the assay: microbe, parasite or virus in culture. Format: cell-based, Lassa fever virus. Also noted: Activity against Lassa GP-pseudotyped-virus specificity: reference not given here.
In assay [2] the test system is Lassa fever virus (Josiah strain). Put plainly: organism not typed. Particulars: for EC50: read-out: Activity vs. LFV EC50. The class given is cell-based.
Assay [3] concerns Guanarito envelope pseudotyped virus. Put plainly: organism not typed. Format: cell-based. The settings on record: read-out: EC50, pseudotyped viral infection, Guanarito envelope.
Assay [4] relates to Tacaribe envelope pseudotyped virus. Nature of the assay: organism not typed. Format: cell-based. Particulars: read-out: EC50, pseudotyped viral infection, Tacaribe envelope.
[5] abbreviates: Human immunodeficiency virus 1, read-out: Activity against Lassa GP-pseudotyped-virus EC50.

Each structure is given as a SMILES string. Like-named read-outs stand apart in the source and are kept apart here. Bounds are passed on as bounds.

In general, EC50 refers to the concentration giving half of the maximal effect.

For the compound `C/C(=N\NC(=O)C1CC1c1ccccc1)c1ccc(NC(=O)c2ccc(Cl)s2)cc1` (stereo not drawn) [Compound 600183, 5-Chloro-thiophene-2-carboxylic acid (4-[1-[(2-phenyl-cyclopropanecarbonyl)-hydrazono]-ethyl]-phenyl)-amide], the “Activity against Lassa GP-pseudotyped-virus specificity” value in assay [1] is on record as over 4000. Further, the EC50 in assay [1] (setting [5]) was under 3 nM.

Turning to `COc1ccc(/C(C)=N\NC(=O)C2CC2c2ccc(C(C)(C)C)cc2)cc1[N+](=O)[O-]` (stereo not drawn) [Compound 600198, 2-(4-tert-Butyl-phenyl)-cyclopropanecarboxylic acid [1-(4-methoxy-3-nitro-phenyl)-eth-(Z)-ylidene]-hydrazide], the “Activity against Lassa GP-pseudotyped-virus specificity” value in assay [1] is recorded as over 800. Also, the EC50 in assay [1] (setting [5]) stood at 14 nM.

`CC(=O)Nc1ccc(/C(C)=N/NC(=O)C2CC2c2ccccc2)cc1` (stereo not drawn) [Compound 600184, N-(4-[1-[(2-phenyl-cyclopropanecarbonyl)-hydrazono]-ethyl}-phenyl)-acetamide]: in assay [1], the “Activity against Lassa GP-pseudotyped-virus specificity” value was over 3000. The EC50 in assay [1] (setting [5]) came out at 3 nM.

With `C/C(=N/NC(=O)C1CC1c1ccccc1)c1ccc2c3c(cccc13)CC2` (stereo not drawn) [Compound 600156], the “Activity against Lassa GP-pseudotyped-virus specificity” value in assay [1] is given as “none”. Further, in assay [1] (setting [5]), the concentration for a half-maximal effect (EC50) was found to be 2000 nM.

Regarding `COc1ccc(/C(C)=N/NC(=O)C2CC2c2ccccc2)c(OC)c1` (stereo not drawn) [Compound 600120, 2-Phenyl-cyclopropanecarboxylic acid [1-(2,4-dimethoxy-phenyl)-eth-(E)-ylidene]-hydrazide], the “Activity against Lassa GP-pseudotyped-virus specificity” value in assay [1] was 180. In addition, the EC50 in assay [1] (setting [5]) came out at 120 nM.

`COc1ccc(/C(C)=N/NC(=O)C2CC2c2ccccc2)cc1OC` (stereo not drawn) [Compound 600154, 2-Phenyl-cyctopropanecarboxylic acid [1-(3,4-dimethoxy-phenyl)-eth-(E)-ylidene]-hydrazide]: the “Activity against Lassa GP-pseudotyped-virus specificity” value in assay [1] was over 50. Also, in assay [1] (setting [5]), the EC50 is 200 nM.

In the case of `C/C(=N/NC(=O)C1CC1c1ccccc1)c1cccs1` (stereo not drawn) [Compound 600093, 2-Phenyl-cyclopropartecarboxylic acid [1-thiophen-2-yl-eth-(Z)-ylidene]-hydrazide], the “Activity against Lassa GP-pseudotyped-virus specificity” value in assay [1] is 2. Further, the concentration for a half-maximal effect (EC50) in assay [1] (setting [5]) is 14000 nM.

With `C/C(=N/NC(=O)C1CC1c1ccccc1)c1ccc(NC(=O)c2ccc(Cl)cc2Cl)cc1` (stereo not drawn) [Compound 600162, 2,4-Dichloro-N-(4-[1-[(2-Phenyl-cyclopropanecarbonyl)-hydrazono]ethyl]-phenyl)-benzamide], the “Activity against Lassa GP-pseudotyped-virus specificity” value in assay [1] is given as over 4000. For the same compound, the concentration giving a half-maximal response (EC50) in assay [1] (setting [5]) was under 3 nM.

`C/C(=N\NC(=O)C1CC1c1ccccc1)c1ccc(-c2ccccc2)cc1` (stereo not drawn) [Compound 600152, 2-Phenyl-cyclopropanecarboxylic acid [1-biphenyl-4-yl-eth-(E)-ylidene]-hydrazide]: in assay [1], the “Activity against Lassa GP-pseudotyped-virus specificity” value is over 8000. Moreover, the EC50 in assay [1] (setting [5]) stood at 1 nM.

Regarding `O=C1Nc2ccccc2/C1=N\NC(=O)C1CC1c1ccccc1` (stereo not drawn) [Compound 600087, 2-Phenyl-cyclopropanecarboxylic acid [2-oxo-1,2-dihydro-indol-(3E)-ylidene]-hydrazide], the “Activity against Lassa GP-pseudotyped-virus specificity” value in assay [1] is listed as over 700. The EC50 in assay [1] (setting [5]) is 40 nM.

Consider `C/C(=N/NC(=O)C1CC1c1ccccc1)c1ccc(NC(=O)C2CC2)cc1` (stereo not drawn) [Compound 600100, Cyclopropanecarboxylic acid (4-[1-[(2-phenyl-cyclopropanecarbonyl)-hydrazono]-ethyl]-phenyl)-amide], for which the EC50 in assay [2] was under 400 nM; in assay [1] (setting [5]) it was 2 nM. Besides, in assay [1], the “Activity against Lassa GP-pseudotyped-virus specificity” value is given as >20,000.

Take `C/C(=N\NC(=O)C1CC1c1ccccc1)c1ccccc1O` (stereo not drawn) [Compound 600176, 2-Phenyl-cyclopropanecarboxylic acid [1-(2-hydroxy-phenyl)-eth-(E)-ylidene]-hydrazide]: the “Activity against Lassa GP-pseudotyped-virus specificity” value in assay [1] is given as over 14. The concentration giving a half-maximal response (EC50) in assay [1] (setting [5]) was found to be 800 nM.

With `C/C(=N\NC(=O)C1CC1c1ccccc1)c1ccc(C)cc1` (stereo not drawn) [Compound 600124, 2-Phenyl-cyclopropanecarboxylic acid [1-p-tolyl-eth-(E)-ylidene]-hydrazide], the “Activity against Lassa GP-pseudotyped-virus specificity” value in assay [1] is recorded as over 700. The EC50 in assay [1] (setting [5]) is under 30 nM.

Take `C/C(=N/NC(=O)C1CC1c1ccc(C(C)(C)C)cc1)c1ccc(F)cc1` (stereo not drawn) [Compound 600197, 2-(4-tert-Butyl-phenyl)-cyclopropanecarboxylic acid [1-(4-fluoro-phenyl)-eth-(Z)-ylidene]-hydrazide]: the “Activity against Lassa GP-pseudotyped-virus specificity” value in assay [1] is recorded as 650. Also, the EC50 in assay [1] (setting [5]) was found to be 20 nM.

Turning to `C/C(=N\NC(=O)C1CC1c1ccccc1)c1ccc(C2CCCCC2)cc1` (stereo not drawn) [Compound 600181, 2-Phenyl-cyclopropanecarboxylic acid [1-(4-cyclohexyl-phenyl)-eth-(E)-ylidene]-hydrazide], in assay [1], the “Activity against Lassa GP-pseudotyped-virus specificity” value is over 400. In addition, in assay [1] (setting [5]), the EC50 was 20 nM.

Turning to `C/C(=N\NC(=O)C1CC1c1ccccc1)c1ccc(N)cc1` (stereo not drawn) [Compound 408306, 2-Phenyl-cyclopropanecarboxylic acid [1-(4-amino-phenyl)-eth-(E)-ylidene]-hydrazide], in assay [2], the “Activity vs. LFV T.I. (therapeutic index)” value is listed as over 100 and the 50% effective concentration (EC50) turned out to be 500 nM. For the same compound, the “Activity against Lassa GP-pseudotyped-virus specificity” value in assay [1] is reported as over 2000. Moreover, the EC50 in assay [1] (setting [5]) was determined as 20 nM.

As for `O=C1Nc2ccc([N+](=O)[O-])cc2/C1=N/NC(=O)C1CC1c1ccccc1` (stereo not drawn) [Compound 600155, 2-Phenyl-cyclopropanecarboxylic acid [5-nitro-2-oxo-1,2-dihydro-indol-(3Z)-ylidene]-hydrazide], the “Activity against Lassa GP-pseudotyped-virus specificity” value in assay [1] is on record as over 40. The concentration giving a half-maximal response (EC50) in assay [1] (setting [5]) is 300 nM.

For `CC(C)/C(=N\NC(=O)C1CC1c1ccccc1)c1ccccc1` (stereo not drawn) [Compound 600123], the “Activity against Lassa GP-pseudotyped-virus specificity” value in assay [1] was 60. Further, in assay [1] (read-out: Activity against Lassa GP-pseudotyped-virus EC50), the EC50 came to 200 nM.

Turning to `O=C(N/N=C/c1ccccc1)[C@H]1C[C@@H]1c1ccccc1` [Compound 600075, (1S,2S)-2-Phenyl-cyclopropanecarboxylic acid [1-phenyl-meth-(E)-ylidene]-hydrazide], the EC50 in assay [1] (setting [5]) is over 30000 nM.

Turning to `C/C(=N\NC(=O)C1CC1c1ccccc1)c1ccc(NC(=O)c2ccco2)cc1` (stereo not drawn) [Compound 600161, Furan-2-carboxylic acid (4-[1-[(2-phenyl-cyclopropanecarbonyl)-hydrazono]-ethyl]-phenyl)-amide], in assay [2], the “Activity vs. LFV T.I. (therapeutic index)” value is recorded as over 2000. The EC50 is under 20 nM in assay [2], 0.5 nM in assay [1] (setting [5]), 300 nM in assay [3] and 800 nM in assay [4]. Also, the “Activity against Lassa GP-pseudotyped-virus specificity” value in assay [1] is listed as >90,000.

In the case of `COc1ccc(C(C)=NNC(=O)C2CC2c2ccccc2)cc1` (stereo in doubt) [Compound 600180, 2-Phenyl-cyclopropanecarboxylic acid [1-(4-methoxy-phenyl)-eth-(Z)-ylidene]-hydrazide], the “Activity against Lassa GP-pseudotyped-virus specificity” value in assay [1] is given as over 4000. For the same compound, the EC50 in assay [1] (setting [5]) is under 3 nM.

For `CCOC(=O)C/C(C)=N/NC(=O)C1CC1c1ccccc1` (stereo not drawn) [Compound 600091, 3-[(2-Phenyl-cyclopropanecarbonyl)-hydrazono]-butyric acid ethyl ester], the “Activity against Lassa GP-pseudotyped-virus specificity” value in assay [1] is over 18. Moreover, the EC50 in assay [1] (setting [5]) was 1600 nM.

`Cc1ccc2c(c1Br)C(=NNC(=O)C1CC1c1ccccc1)C(=O)N2` (stereo not drawn) [Compound 600140, 2-Phenyl-cyclopropanecarboxylic acid [4-bromo-5-methyl-2-oxo-1,2-dihydro-indol-(3E)-ylidene]-hydrazide]: the “Activity against Lassa GP-pseudotyped-virus specificity” value in assay [1] is reported as over 30. In addition, the EC50 in assay [1] (setting [5]) came to 300 nM.

`C/C(=N/NC(=O)C1CC1c1ccc(C(C)(C)C)cc1)c1cccc(NC(=O)c2ccccc2F)c1` (stereo not drawn) [Compound 600182, N-[3-(1-[[2-(4-tert-Butyl-phenyl)-cyclopropanecarbonyl]-hydrazono]-ethyl)-phenyl]-2-fluoro-benzamide]: the “Activity against Lassa GP-pseudotyped-virus specificity” value in assay [1] is recorded as over 15. Further, in assay [1] (setting [5]), the EC50 came out at 800 nM.

`C/C(=N\NC(=O)C1CC1c1ccccc1)c1ccc(N(C)C)cc1` (stereo not drawn) [Compound 600178, 2-Phenyl-cyclopropanecarboxylic acid [1-(4-dimethylamino-phenyl)-eth-(E)-ylidene]-hydrazide]: the “Activity against Lassa GP-pseudotyped-virus specificity” value in assay [1] is over 4000. Also, the EC50 in assay [1] (setting [5]) is under 3 nM.

`C/C(=N\NC(=O)C1CC1c1ccccc1)c1cccc(NC(=O)c2ccccc2F)c1` (stereo not drawn) [Compound 600185]: the “Activity against Lassa GP-pseudotyped-virus specificity” value in assay [1] is over 1.3. Moreover, the EC50 in assay [1] (setting [5]) was 9000 nM.

Take `C/C(=N/NC(=O)C1CC1c1ccccc1)c1ccccc1Cl` (stereo not drawn) [Compound 600092, 2-Phenyl-cyclopropanecarboxylic acid [1-(2-chloro-phenyl)-eth-(Z)-ylidene]-hydrazide]: in assay [1], the “Activity against Lassa GP-pseudotyped-virus specificity” value was 20. Moreover, the concentration giving a half-maximal response (EC50) in assay [1] (setting [5]) was 200 nM.

`C/C(=N/NC(=O)C1CC1c1ccccc1)c1ccc(NC(=O)C(F)(F)F)cc1` (stereo not drawn) [Compound 600187, 2,2,2-Trifluoro-N-(4-[1-[(2-phenyl-cyclopropanecarbonyl)-hydrazono]-ethyl]-phenyl)-acetamide]: the “Activity against Lassa GP-pseudotyped-virus specificity” value in assay [1] is over 4000. For the same compound, the EC50 in assay [1] (setting [5]) is 3 nM.

Consider `C/C(=N\NC(=O)CCc1ccccc1)c1cccc(N)c1` [Compound 600090, 3-Phenyl-propionic acid [1-(3-amino-phenyl)-eth-(E)-ylidene]-hydrazide], for which the “Activity against Lassa GP-pseudotyped-virus specificity” value in assay [1] is reported as over 18. For the same compound, the EC50 in assay [1] (setting [5]) was found to be 1600 nM.

On to `C/C(=N\NC(=O)C1CC1c1ccccc1)C1CC1` (stereo not drawn) [Compound 600086, 2-Phenyl-cyclopropanecarboxylic acid [1-cyclopropyl-eth-(E)-ylidene]-hydrazide], for which the “Activity against Lassa GP-pseudotyped-virus specificity” value in assay [1] is over 2. Further, the EC50 in assay [1] (setting [5]) was 10000 nM.

(Values after patent US8148428B2 (priority 2006, dated 2012).)
